Source: the NIST ThermoML archive (doi:10.1021/acs.jced.5b00488)
± gives the expanded uncertainty stated by the source.

Settings: Crystal; visual observation

- Triple point temperature: 468.15 ± 4 K
Structure (SMILES): CC(COCc1ccc(O)c2ncccc12)(COCc1ccc(O)c2ncccc12)COCc1ccc(O)c2ncccc12
